From US8410089B2, “Fused heterocyclic ring compound” (Takeda Pharmaceutical Company Limited, priority 2009, dated 2013)

Molecular target: T1, human GPR119 (Homo sapiens, UniProt Q8TDV5)
T1 construct: expressed in transfected cells
T1 sequence (Q8TDV5 1-335): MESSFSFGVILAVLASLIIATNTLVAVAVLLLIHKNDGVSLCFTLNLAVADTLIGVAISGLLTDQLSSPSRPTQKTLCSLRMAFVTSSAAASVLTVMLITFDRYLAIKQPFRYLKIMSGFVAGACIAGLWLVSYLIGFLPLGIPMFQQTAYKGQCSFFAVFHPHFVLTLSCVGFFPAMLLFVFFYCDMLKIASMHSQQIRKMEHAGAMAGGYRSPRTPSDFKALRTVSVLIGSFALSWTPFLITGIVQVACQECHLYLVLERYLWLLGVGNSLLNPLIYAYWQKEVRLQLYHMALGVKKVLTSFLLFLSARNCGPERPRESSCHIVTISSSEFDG
Test: Human GPR119 agonist activity with increase of intracellular cAMP concentration as index (CRE-luciferase reporter assay in hGPR119/CRE-luc/CHO(dhfr-) cells)
Format: cell-based
Conditions: 1 μM test compound, 2 hr incubation; luciferase activity with 10 μM N-[4-(methylsulfonyl)phenyl]-5-nitro-6-{4-[4-(trifluoromethoxy)phenoxy]piperidin-1-yl}pyrimidin-4-amine = 100%, DMSO = 0%
Experimental: Evaluation of Human GPR119 Agonist Activity with Increase of Intracellular Camp Concentration as Index
(1) Construction of Expression Plasmid of Human GPR119 Gene
Using High Fidelity RNA PCR Kit (Takara Bio Inc.), human GPR119 gene was cloned by PCR using cDNA library synthesized from human brain mRNA (Clontech) as a template and synthetic DNA having the following sequence. Primer 1 and Primer 2 were is prepared by adding cleavage sites for Sal I and Nhe I based on the base sequence information of human GPR119 gene.
PCR was performed using Pyrobest DNA polymerase (Takara Bio Inc.). The obtained PCR product was cloned to pUC118 (Takara Bio Inc.), and the base sequence was […] and digested with restriction enzymes Sal I, Nhe I. The obtained DNA fragment was inserted into an animal cell expression vector pAKKO-111H (plasmid same as pAKKO-1.111H described in Biochem. Biophys. Acta, Hinuma, S. et al., 1219, 251-259 (1994)) similarly digested with Sal I, Nhe I, whereby an expression plasmid pAKKO-111H/hGPR119 was prepared.
(2) Construction of Reporter Plasmid
Zeocin resistance gene was cloned by PCR using plasmid pcDNA3.1/Zeo (Invitrogen) as a template, synthetic DNA having the following sequences wherein cleavage sites for restriction enzymes Sal I and BamH I are added to before and after a region containing SV40 Ori and a region containing SV40pA, which are located at the upstream and downstream of Zeocin resistance gene of this plasmid, as a primer set, and KOD polymerase (TOYOBO).
The obtained PCR product was inserted into pCR-BluntII (Invitrogen). A fragment containing a Zeocine resistance gene obtained by digesting the plasmid with restriction enzymes Sal I and BamH I was inserted into plasmid pGL3(R2.2)-Basic Vector (promega) similarly digested with Sal I and Bam HI to give Zeocin resistance plasmid pGL3(R2.2)/Zeocin-Basic Vector.
A reporter plasmid containing 4 cAMP responsive elements (CRE) connected in tandem was prepared using the following 5′-terminal phosphorylated synthetic DNA.
First, a DNA fragment containing a CRE sequence obtained by annealing CRE-Upper and CRE-Lower and elongating with KOD polymerase was inserted into pCR-BluntII to give pCR-BluntII-CRE. A fragment cleaved from pCR-BluntII-CRE with restriction enzymes Kpn I and Hind III was inserted into pGL3(R2.2)/Zeocin-Basic Vector similarly digested with Kpn I and Hind III to give reporter plasmid pGL3(R2.2)/Zeocin-CRE-luc.
(3) Introduction of Human GPR119 Gene and Reporter Gene into CHO(dhfr-) Cells and Acquirement of Expressing Cell
CHO(dhfr-) cells in MEMα (minimum essential medium alpha) (Nikken bio medical laboratory) medium containing 10% fetal bovine serum, 100 U/mL penicillin and 100 μg/mL streptomycin (Invitrogen) were detached by a treatment with trypsin-EDTA (ethylenediaminetetraacetic acid) (Invitrogen), the cells were washed with PBS (Phosphate-buffered saline), centrifuged (1000 rpm, 5 min) and suspended in PBS at a cell density of 1×10^7 cells/mL. Then, DNA was introduced into the cell by a gene pulser (Bio-Rad) under the following conditions. That is, 1×10^7 cells, plasmid pGL3(R2.2)/Zeocin-CRE-luc (15 μg), which was obtained in (2) and linearized with BssH II, and pAKKO-111H (5 μg) were added in a 0.4 cm gap cuvette, and the mixture was electroporated at voltage […], capacitance 950 μF. The cells were placed in the above-mentioned medium, cultured for 24 hr, and the cells were detached and centrifuged. The cells were diluted to 250 cells/well, plated in a 96 well plate (Corning) and cultivated in a CO2 incubator at 37° C. to give a transformant. Then, forskolin was added to the obtained transformant and a strain (CRE-luc/CHO(dhfr-) cell) that induces luciferase expression was selected. […]

Point of comparison: `CC(C)c1noc(N2CCC(Oc3cc(N4CCc5cc(N6CCCC6=O)ccc54)ncn3)CC2)n1` [Example 46, 1-{1-[6-({1-[3-(1-methylethyl)-1,2,4-oxadiazol-5-yl]piperidin-4-yl}oxy)pyrimidin-4-yl]-2,3-dihydro-1H-indol-5-yl}pyrrolidin-2-one], “GPR119 agonist activity (%) at 1 μM concentration” value 80%. Against it:
- CC(C)(C)OC(=O)N1CCC(Cn2ccc3c(N4CCc5cc(S(C)(=O)=O)ccc54)ncnc32)C1 (stereo in doubt) [Example 12, tert-butyl (3S)-3-({4-[5-(methylsulfonyl)-2,3-dihydro-1H-indol-1-yl]-7H-pyrrolo[2,3-d]pyrimidin-7-yl}methyl)pyrrolidine-1-carboxylate] — higher, 84%
- CC(C)(C)OC(=O)N1CCC(n2ccc3c(N4CCc5cc(S(C)(=O)=O)ccc54)ncnc32)CC1 [Example 1, tert-butyl 4-{4-[5-(methylsulfonyl)-2,3-dihydro-1H-indol-1-yl]-7H-pyrrolo[2,3-d]pyrimidin-7-yl}piperidine-1-carboxylate] — lower, 62%
- CC(C)(C)OC(=O)N1CCC(n2ccc3c(N4CCc5cc(S(C)(=O)=O)ccc54)ccnc32)CC1 [Example 3, tert-butyl 4-{4-[5-(methylsulfonyl)-2,3-dihydro-1H-indol-1-yl]-1H-pyrrolo[2,3-b]pyridin-1-yl}piperidine-1-carboxylate] — higher, 87%
- CC(C)OC(=O)N1CCC(n2ccc3c(N4CCc5cc([N+](=O)[O-])ccc54)ncnc32)CC1 [Example 7, 1-methylethyl 4-[4-(5-nitro-2,3-dihydro-1H-indol-1-yl)-7H-pyrrolo[2,3-d]pyrimidin-7-yl]piperidine-1-carboxylate] — higher, 96%
- CC(C)OC(=O)N1CCC(n2ccc3c(N4CCc5cc(N6CCCC6=O)ccc54)ncnc32)CC1 [Example 10, 1-methylethyl 4-{4-[5-(2-oxopyrrolidin-1-yl)-2,3-dihydro-1H-indol-1-yl]-7H-pyrrolo[2,3-d]pyrimidin-7-yl}piperidine-1-carboxylate] — higher, 93%
- CC(C)(C)OC(=O)N1CC(Cn2ccc3c(N4CCc5cc(S(C)(=O)=O)ccc54)ncnc32)C1 [Example 14, tert-butyl 3-({4-[5-(methylsulfonyl)-2,3-dihydro-1H-indol-1-yl]-7H-pyrrolo[2,3-d]pyrimidin-7-yl}methyl)azetidine-1-carboxylate] — higher, 82%
- CC(C)(C)OC(=O)N1CCCC(n2ccc3c(N4CCc5cc(S(C)(=O)=O)ccc54)ncnc32)CC1 (centres unmarked) [Example 16, tert-butyl 4-{4-[5-(methylsulfonyl)-2,3-dihydro-1H-indol-1-yl]-7H-pyrrolo[2,3-d]pyrimidin-7-yl}azepane-1-carboxylate] — lower, 77%
- CC(C)OC(=O)N1CCC(Oc2cc(N3CCc4cc(S(C)(=O)=O)ccc43)ncn2)CC1 [Example 18, 1-methylethyl 4-({6-[5-(methylsulfonyl)-2,3-dihydro-1H-indol-1-yl]pyrimidin-4-yl}oxy)piperidine-1-carboxylate] — lower, 74%
- CN(CCO)C(=O)c1ccc2c(c1)CCN2c1cc(OC2CCN(C(=O)OC(C)(C)C)CC2)ncn1 [Example 20, tert-butyl 4-[(6-{5-[(2-hydroxyethyl)(methyl)carbamoyl]-2,3-dihydro-1H-indol-1-yl}pyrimidin-4-yl)oxy]piperidine-1-carboxylate] — higher, 88%
- CCc1cnc(N2CCC(Oc3cc(N4CCc5cc(C(=O)N(C)CCO)ccc54)ncn3)CC2)nc1 [Example 21, 1-(6-{[1-(5-ethylpyrimidin-2-yl)piperidin-4-yl]oxy}pyrimidin-4-yl)-N-(2-hydroxyethyl)-N-methyl-2,3-dihydro-1H-indole-5-carboxamide] — the same, 80%
- CCc1cnc(N2CCC(Oc3cc(N4CCc5cc(C(=O)NC(C)CO)ccc54)ncn3)CC2)nc1 (centres unmarked) [Example 23, 1-(6-{[1-(5-ethylpyrimidin-2-yl)piperidin-4-yl]oxy}pyrimidin-4-yl)-N-(1-hydroxypropan-2-yl)-2,3-dihydro-1H-indole-5-carboxamide] — lower, 79%
- CCc1cnc(N2CCC(Oc3cc(N4CCc5cc(C(=O)N6CCOCC6)ccc54)ncn3)CC2)nc1 [Example 27, [1-(6-{[1-(5-ethylpyrimidin-2-yl)piperidin-4-yl]oxy}pyrimidin-4-yl)-2,3-dihydro-1H-indol-5-yl](morpholin-4-yl)methanone] — lower, 77%
- CC(C)c1noc(N2CCC(Oc3cc(N4CCc5cc(C(=O)N(C)CCO)ccc54)ncn3)CC2)n1 [Example 30, N-(2-hydroxyethyl)-N-methyl-1-[6-({1-[3-(1-methylethyl)-1,2,4-oxadiazol-5-yl]piperidin-4-yl}oxy)pyrimidin-4-yl]-2,3-dihydro-1H-indole-5-carboxamide] — lower, 78%
- COCCN(C)C(=O)c1ccc2c(c1)CCN2c1cc(OC2CCN(c3nc(C(C)C)no3)CC2)ncn1 [Example 31, N-(2-methoxyethyl)-N-methyl-1-[6-({1-[3-(1-methylethyl)-1,2,4-oxadiazol-5-yl]piperidin-4-yl}oxy)pyrimidin-4-yl]-2,3-dihydro-1H-indole-5-carboxamide] — the same, 80%
- CC(C)c1noc(N2CCC(N(c3cc(N4CCc5cc(S(C)(=O)=O)ccc54)ncn3)C(F)(F)F)CC2)n1 [Example 32, N-{1-[3-(1-methylethyl)-1,2,4-oxadiazol-5-yl]piperidin-4-yl}-6-[5-(methylsulfonyl)-2,3-dihydro-1H-indol-1-yl]-N-(trifluoromethyl)pyrimidin-4-amine] — higher, 92%
- CC(C)(C)SC(=O)N1CCC(Oc2cc(N3CCc4cc(S(C)(=O)=O)ccc43)ncn2)CC1 [Example 36, S-tert-butyl 4-({6-[5-(methylsulfonyl)-2,3-dihydro-1H-indol-1-yl]pyrimidin-4-yl}oxy)piperidine-1-carbothioate] — higher, 87%
- CCc1noc(N2CCC(Oc3cc(N4CCc5cc(S(C)(=O)=O)ccc54)ncn3)CC2)n1 [Example 41, 1-(6-{[1-(3-ethyl-1,2,4-oxadiazol-5-yl)piperidin-4-yl]oxy}pyrimidin-4-yl)-5-(methylsulfonyl)-2,3-dihydro-1H-indole] — higher, 85%
- CC(C)SC(=O)N1CCC(Oc2cc(N3CCc4cc(N5CCCC5=O)ccc43)ncn2)CC1 [Example 45, S-(1-methylethyl) 4-({6-[5-(2-oxopyrrolidin-1-yl)-2,3-dihydro-1H-indol-1-yl]pyrimidin-4-yl}oxy)piperidine-1-carbothioate] — lower, 75%
- CC(C)SC(=O)N1CCC(Oc2cc(N3CCc4cc(NC(=O)C5CCCO5)ccc43)ncn2)CC1 [Example 50, S-(1-methylethyl)4-{[6-(5-{[(2R)-tetrahydrofuran-2-ylcarbonyl]amino}-2,3-dihydro-1H-indol-1-yl)pyrimidin-4-yl]oxy}piperidine-1-carbothioate] — higher, 85%
